From patent US20050282818A1, “Ubiquitin ligase inhibitors” (Rigel Pharmaceuticals, Inc., priority 2004, published 2005) come the findings set out here.

The test system of assay [1] is OVCAR8 cells. Briefly: Cell proliferation PAD assay, OVCAR8. The format is cell-based. Particulars: Homo sapiens, OVCAR-8, 6pt, 48 hours. As to the method: (§1) Cell lines used are available from American Type Culture Collection (ATCC), for example, cell cultures containing A549 (ATCC# CCL-185), HeLa (ATCC# CCL-2), HCT116 ATTC# CCL-247), and H1299 (ATCC# CRL-5803) cells were maintained in T175 flasks following the ATCC recommended media and handling procedures. […] A 20,000 cells/ml solution was made for plating. Cells were plated in black Packard 96 well plates by placing 100 μl per well (2,000 cells per well). […] The definitions of the cell types used are as follows: A549 is lung carcinoma; HI 299 is non-small cell lung carcinoma; HI 155 is non-small cell lung carcinoma; AsPC-1 is pancreatic adenocarcinoma; Caov-3 is ovarian adenocarcinoma; COLO 205 is colorectal adenocarcinoma; DLD-1 colorectal adenocarcinoma; HCT116 is colorectal carcinoma; DU 145 is prostate carcinoma; ES-2 is ovarian clear cell carcinoma; H460 is large cell lung carcinoma; HELA is cervical adenocarcinoma; MIA PaCa-2 is pancreatice carcinoma; OVCAR-3 is ovarian adenocarcinoma; OVCAR8 is ovarian carcinoma; PC3 is prostate adenocarcinoma; SK-OV-3 is ovarian adenocarcinoma; SU86.86 is pancreatic carcinoma; TOV-21G is avarian clear cell carcinoma; U2OS is bone osteosarcoma; is ASPC-I is pancreatic adenocarcinoma; BXPC-3 is pabcreatic adenocarcinoma; HL60 is promyeloblast promyelocytic leukemia; K562 is bone marrow chronic myelogenous leukemia; L1210 is mouse lymphocytic leukemia; MOLT3 is T lymphoblast acute lymphoblastic leukemia; MOLT4 is T lymphoblast acute lymphoblastic leukemia; SW620 is colorectal adenocarcinoma; THP-1 is monocyte acute monocytic leukemia; U937 is histiocytic lymphoma; and UACC-257 is melanoma.
(§2) Compounds and additional media were added 24 hours after cell plating. […] All compound testing was done in duplicate using 6.3 fold dilutions starting with 10 mM. […] Taxol and at least one additional control were run on all plates. Three microliters of the compound master plate were added to deep well blocks containing 750 μl of RPMI media. One hundred microliters were transferred from the compound/media deep well blocks to the plated cells resulting in a 500 fold dilution of the compounds. Cells were grown at 37° C., 5% CO2 for 48 hours.
(§3) Cells to be analyzed by photography were fixed and stained. One hundred microliters of media were removed and 100 μl of 9.3% formamide was added to each well. Plates were left on the benchtop for 45 minutes. A staining solution containing 1.55 μl of 1 mg/ml DAPI added to 18.75 ml PBS was warmed for 15 minutes at 37° C. The cells were aspirated prior to washing with 100 μl of PBS. Seventy microliters of PBS were aspirated and 170 μl of the DAPI solution were added to each well of fixed cells. Plates were left at room temperature for one hour then aspirated and washed twice with 100 μl of PBS. The stained cells were left at 4° C. for a minimum of 16 hours before photographic analysis with Array Scan II (Cellomics). Analysis of the photographic images to determine numbers of live cells (proliferation), apoptotic cells and dead cells, were according to the methods described in U.S. Utility patent application Ser. No. 10/652,440, which incorporated herein in its entirety.

The test system of assay [2] is UACC-257 cells. As to the kind of experiment: Cell proliferation PAD assay, UACC-257. Format: cell-based. Particulars: Homo sapiens, UACC257 cells, 6pt, 48 hours. As to the method:
as §1, §2, §3

Assay [3] has as its target T1, ROC1/CUL1 (Homo sapiens, UniProt P62877+Q13616).
T1 construct: made in house
As to the kind of experiment: ROC1/CUL1 ubiquitin ligase assay (SCF assay). The format is biochemical. The procedure: Inhibition of ubiquitin ligase activity of E1+E2+E3 was measured using the protocol as described in WO 01/75145 with E3 as the ROC1/CUL1, ROC1/CUL2, or ROC2/CUL5 complex.
The wells of nickel-substrate 96-well plates (Pierce Chemical) are blocked with 100 μl of 1 casein/phosphate buffered saline (PBS) for 1 hour at room temperature, then washed with 200 μl of PBST (0.1% Tween-20 in PBS) 3 times. To each well is added the following Flag-ubiquitin (see above) reaction solution: 62.5 mM Tris pH 7.5, 6.25 mm MgCl2, 0.75 mM DTT, 2.5 mM ATP, 2.5 mM NaF1, 2.5 nM Okadaic acid, 100 ng Flag-ubiquitin (made as described above).
The buffer solution is brought to a final volume of 80 μl with Milipore-filtered water, followed by the addition of 10 μl DMSO.
To the above solution is then added 10 μl of ubiquitination enzymes in 20 mM Tris buffer, pH 7.5, and 5% glycerol. E2-Ubch5c and E3-His ROC1/Cul1, ROC1/CUL2, and ROC2/CUL5 are made as described in WO 01/75145. E1 is obtained commercially (Affiniti Research Products, Exeter, U. K.). The following amounts of each enzyme are used for these assays: 5 ng/well of E1; […] E2; and 100 ng/well His-E3. Varying amounts of compounds according to the invention are added and the reaction allowed to proceed at room temperature for 1 hour.
Following the ubiquitination reaction, the wells are washed with 200 μl of PBST 3 times. For measurement of the enzyme-bound ubiquitin, 100 gel of Mouse anti-Flag (1:10,000) and anti-Mouse Ig-HRP (1:15, 000) in PBST are added to each well and allowed to incubate at room temperature for 1 hour. The wells are then washed with 200 μl of PBST 3 times, followed by the addition of 100 μl of luminol substrate (1/5 dilution). Luminescence for each well is then measured using a fluorimeter.
Table 2 below illustrates the inhibitory activity of the compounds of the invention determined by the TRAF6/Uev1A/Ubc13 assay as well as in the ICAM, APC and the ROC1/CUL1 Ubiquitin Ligase Assay (SCF Assay). The IC50 values were determined using a various concentrations of the compounds.

Some results are limits rather than exact numbers.

T1 sequence (P62877 whole entry): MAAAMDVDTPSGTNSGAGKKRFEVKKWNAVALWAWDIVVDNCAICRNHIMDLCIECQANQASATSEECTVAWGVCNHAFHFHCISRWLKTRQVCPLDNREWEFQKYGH
T1 sequence (Q13616 whole entry): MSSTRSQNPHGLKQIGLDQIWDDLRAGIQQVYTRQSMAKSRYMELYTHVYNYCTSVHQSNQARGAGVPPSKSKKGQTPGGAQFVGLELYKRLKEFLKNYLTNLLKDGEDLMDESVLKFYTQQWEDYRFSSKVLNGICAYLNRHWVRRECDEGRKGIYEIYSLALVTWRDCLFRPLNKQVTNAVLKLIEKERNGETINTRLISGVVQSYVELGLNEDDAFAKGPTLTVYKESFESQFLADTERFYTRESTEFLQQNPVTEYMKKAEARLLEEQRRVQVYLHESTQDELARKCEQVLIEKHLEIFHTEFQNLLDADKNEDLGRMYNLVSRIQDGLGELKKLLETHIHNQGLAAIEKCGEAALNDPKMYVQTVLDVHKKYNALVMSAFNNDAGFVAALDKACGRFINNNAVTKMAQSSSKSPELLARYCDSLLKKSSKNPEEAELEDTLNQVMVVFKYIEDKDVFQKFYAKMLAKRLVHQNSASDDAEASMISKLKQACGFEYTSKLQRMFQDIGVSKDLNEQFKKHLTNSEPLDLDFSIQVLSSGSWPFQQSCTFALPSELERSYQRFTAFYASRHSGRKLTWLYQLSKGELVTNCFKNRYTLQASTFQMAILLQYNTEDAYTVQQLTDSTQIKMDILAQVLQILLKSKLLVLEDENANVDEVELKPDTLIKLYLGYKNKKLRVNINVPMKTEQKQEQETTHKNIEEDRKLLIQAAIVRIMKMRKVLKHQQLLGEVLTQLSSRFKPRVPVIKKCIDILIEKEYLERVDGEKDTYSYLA

Regarding `O=[N+]([O-])c1ccc(Sc2cccc3cccnc23)c2nonc12` [compound 5, 8-[(7-Nitro-2,1,3-benzoxadiazol-4-yl)thio]quinoline], the 50% inhibitory concentration (IC50) in assay [1] and in assay [2] was less than 1 µM throughout.

Consider `O=[N+]([O-])c1ccc(Oc2c(Cl)cc(S(=O)(=O)Nc3cccc4nsnc34)cc2Cl)c(Cl)c1` [compound 73, N-2,1,3-benzothiadiazol-4-yl-3,5-dichloro-4-(2-chloro-4-nitrophenoxy)benzenesulfonamide], for which the IC50 in assay [1] and in assay [2] was no less than 20 µM throughout. As for `O=S(=O)(Nc1cccc2nonc12)c1ccc(Oc2ncc(C(F)(F)F)cc2Cl)cc1` [compound 78, N-2,1,3-benzoxadiazol-4-yl-4-{[3-chloro-5-(trifluoromethyl)pyridin-2-yl]oxy}benzenesulfonamide], the IC50 in assay [1] and in assay [2] was 1 to 20 µM each time. Consider `O=[N+]([O-])c1ccc(N2CCN(c3cc(C(F)(F)F)ccn3)CC2)c2nonc12` [compound 90, 4-nitro-7-{4-[4-(trifluoromethyl)pyridin-2-yl]piperazin-1-yl}-2,1,3-benzoxadiazole], for which the IC50 in assay [1] and in assay [2] was no less than 20 µM in each case. `O=S(=O)(Nc1cccc2nsnc12)c1ccc(Oc2ccccc2)cc1` [compound 94, N-2,1,3-benzothiadiazol-4-yl-4-phenoxybenzenesulfonamide]: the IC50 in assay [1] and in assay [2] was 1 to 20 µM throughout. Take `O=[N+]([O-])c1ccc(Oc2ccc(S(=O)(=O)Nc3cccc4nonc34)cc2Cl)c(C(F)(F)F)c1` [compound 114, N-2,1,3-benzoxadiazol-4-yl-3-chloro-4-[4-nitro-2-(trifluoromethyl)phenoxy]benzenesulfonamide]: the IC50 in assay [1] and in assay [2] was 1 to 20 µM throughout. As to `Cc1ccc(N2CCN(c3ccc([N+](=O)[O-])c4nonc34)CC2)cc1C` [compound 140, 4-[4-(3,4-dimethylphenyl)piperazin-1-yl]-7-nitro-2,1,3-benzoxadiazole], the IC50 in assay [1] and in assay [2] was 1 to 20 µM throughout.

As to `N#CC1(c2ccccc2)CCN(c2ccc([N+](=O)[O-])c3nonc23)CC1` [compound 141, 1-(7-nitro-2,1,3-benzoxadiazol-4-yl)-4-phenylpiperidine-4-carbonitrile], the IC50 in assay [1] and in assay [2] was no less than 20 µM in each case. For the compound `O=C(c1ccc(F)cc1)C1CCN(c2ccc([N+](=O)[O-])c3nonc23)CC1` [compound 142, (4-fluorophenyl)[1-(7-nitro-2,1,3-benzoxadiazol-4-yl)piperidin-4-yl]methanone], the IC50 in assay [1] and in assay [2] was 1 to 20 µM throughout. `CC1CC(C)CN(c2ccc([N+](=O)[O-])c3nonc23)C1` (centres unmarked) [compound 144, 4-(3,5-dimethylpiperidin-1-yl)-7-nitro-2,1,3-benzoxadiazole]: the IC50 in assay [1] and in assay [2] was no less than 20 µM each time. As to `Cc1ccc(Cl)cc1N1CCN(c2ccc([N+](=O)[O-])c3nonc23)CC1` [compound 145, 4-[4-(5-chloro-2-methylphenyl)piperazin-1-yl]-7-nitro-2,1,3-benzoxadiazole], the IC50 in assay [1] and in assay [2] was no less than 20 µM each time. As to `O=[N+]([O-])c1ccc(N2CCN(c3ccc(O)cc3)CC2)c2nonc12` [compound 146, 4-[4-(7-nitro-2,1,3-benzoxadiazol-4-yl)piperazin-1-yl]phenol], the IC50 in assay [1] and in assay [2] was 1 to 20 µM each time.

For `O=[N+]([O-])c1ccc(N2CCN(c3ncccc3C(F)(F)F)CC2)c2nonc12` [compound 148, 4-nitro-7-{4-[3-(trifluoromethyl)pyridin-2-yl]piperazin-1-yl}-2,1,3-benzoxadiazole], the IC50 in assay [1] and in assay [2] was 1 to 20 µM each time.

For the compound `CCOC(=O)c1cc(C#N)c(C)nc1N1CCN(c2ccc([N+](=O)[O-])c3nonc23)CC1` [compound 153, ethyl 5-cyano-6-methyl-2-[4-(7-nitro-2,1,3-benzoxadiazol-4-yl)piperazin-1-yl]nicotinate], the IC50 in assay [1] and in assay [2] was no less than 20 µM each time. Consider `O=[N+]([O-])c1ccc(Sc2nc3ccccc3s2)c2nonc12` [compound 158, 4-(1,3-benzothiazol-2-ylthio)-7-nitro-2,1,3-benzoxadiazole], for which the IC50 in assay [1] and in assay [2] was 1 to 20 µM in each case. The compound `CC1CC(C)CN(S(=O)(=O)c2ccc(Cl)c3nonc23)C1` (centres unmarked) [compound 192, 4-chloro-7-[(3,5-dimethylpiperidin-1-yl)sulfonyl]-2,1,3-benzoxadiazole] returned an IC50 in assay [3] of no less than 20 µM. As to `N#CC1(c2ccccc2)CCN(S(=O)(=O)c2ccc(O)c3nonc23)CC1` [compound 199, 1-[(7-hydroxy-2,1,3-benzoxadiazol-4-yl)sulfonyl]-4-phenylpiperidine-4-carbonitrile], in assay [3], the IC50 is no less than 20 µM. Take `N#Cc1ccc(N2CCN(S(=O)(=O)c3c(Cl)ccc4nonc34)CC2)nc1` [compound 209, 6-{4-[(5-chloro-2,1,3-benzoxadiazol-4-yl)sulfonyl]piperazin-1-yl}nicotinonitrile]: the IC50 in assay [3] was no less than 20 µM. The compound `CC(=O)N1CCN(S(=O)(=O)c2c(Sc3cccc4cccnc34)ccc3nonc23)CC1` [compound 214, 8-({4-[(4-acetylpiperazin-1-yl)sulfonyl]-2,1,3-benzoxadiazol-5-yl}thio)quinoline] gave an IC50 in assay [3] of no less than 20 µM.

As to `O=S(=O)(c1ccc(Sc2ccc(O)cc2)c2nonc12)N1CCC(Oc2ncccn2)CC1` [compound 226, 4-[(7-{[4-(pyrimidin-2-yloxy)piperidin-1-yl]sulfonyl}-2,1,3-benzaxadiazol-4-yl)thio]phenol], in assay [3], the IC50 was no less than 20 µM. With `O=S(=O)(Nc1ccc(F)c(F)c1)c1ccc(Cl)c2nonc12` [compound 262, 7-chloro-N-(3,4-difluorophenyl)-2,1,3-benzoxadiazole-4-sulfonamide], in assay [3], the IC50 is no less than 20 µM. As for `O=S(=O)(Nc1cccc(F)c1)c1ccc(Cl)c2nonc12` [compound 263, 7-chloro-N-(3-fluorophenyl)-2,1,3-benzoxadiazole-4-sulfonamide], the IC50 in assay [3] was no less than 20 µM.

`Cc1cc(C)cc(-c2cccc3nonc23)c1` [compound 285, 4-(3,5-Dimethylphenyl)-2,1,3-benzoxadiazole] displayed an IC50 in assay [3] of no less than 20 µM.

The IC50 is the concentration needed to halve the response being measured. Lower therefore signals inhibition by little substance.
